The values that follow come from patent publication US20240316038A1, “APOL1 INHIBITORS AND METHODS OF USE” (Maze Therapeutics, Inc., priority 2021, published 2024).

pEC50: −log10 of the molar value.

Test [1] deals with T1, APOL1 G2 (Homo sapiens, UniProt O14791, DEL388-389).
T1 construct: expressed in transfected cells; host or cells: HEK293 T-REx clonal lines: HEK T-REx/GCaMP6f/APOL1 G2 K6.3 in A1, HEK293/T-REx APOL1 G2/clone #2 in A2
T1 sequence (O14791 with tags, fused parts or gaps DEL388-389): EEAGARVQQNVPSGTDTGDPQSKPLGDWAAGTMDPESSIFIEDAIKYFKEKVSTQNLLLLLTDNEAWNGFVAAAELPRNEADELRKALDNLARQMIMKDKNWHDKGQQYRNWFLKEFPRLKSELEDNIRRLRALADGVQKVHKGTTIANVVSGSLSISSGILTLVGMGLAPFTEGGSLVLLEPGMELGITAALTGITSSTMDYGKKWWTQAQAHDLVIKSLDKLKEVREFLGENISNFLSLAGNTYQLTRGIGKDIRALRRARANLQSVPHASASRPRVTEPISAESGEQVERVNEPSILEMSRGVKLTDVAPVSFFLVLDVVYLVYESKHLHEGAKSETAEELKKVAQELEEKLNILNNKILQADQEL
The experiment in a line: Rescue of HEK293 cell death caused by overexpression of APOL1 (CellTiter-Glo luminescence), HEK293/T-REx APOL1 G2/clone #2. In kind it is cell-based. To be noted: reversal of cell death caused by overexpression of APOL1; geometric mean of at least 2 assay runs, † = single assay run (technical duplicate). In a few lines: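 HEK293/T-REx APOL1 G2 clone #2 cells, 5,000/well, induced with 6 ng/mL doxycycline and exposed to compound (8-point, 3-fold dilutions, 0.5% DMSO) for 17 h at 37 °C. Viability by CellTiter-Glo luminescence; EC50 for reversal of APOL1-induced death from a four-parameter logistic fit, geometric mean of ≥2 runs.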

In test [2] the target is T1, APOL1 G2. Nature of the test: APOL1 calcium transport inhibition assay (GCaMP6f calcium influx, FLIPR) in HEK T-REx/GCaMP6f/APOL1 G2 K6.3 cells. In kind it is cell-based. As to conditions: inhibition of APOL1-mediated calcium influx; geometric mean of at least 2 assay runs, † = single assay run (technical duplicate). In a few lines: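 HEK293 cells stably expressing GCaMP6f, APOL1 G2 induced 6 h with doxycycline (20 ng/mL added), then washed into Ca2+-free Tyrode's buffer pH 7.4. Compounds (8-point dose response) preincubated 10 min at room temperature, then Ca2+ injected to 5 mM final and influx read on FLIPR. AC50 reported as geometric mean of runs.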

For `COC1CCN(CCc2cccc(Cl)c2)CC1COc1ccc(S(C)(=O)=O)cc1` (single isomer, unassigned) [Compound 35, (3S,4R) or (3R,4R) or (3S,4S) or (3R,4S)-1-(3-chlorophenethyl)-4-methoxy-3-((4-(methylsulfonyl)phenoxy)methyl)piperidine], the negative-log EC50 (pEC50) (commonly the EC50 on a negative log10 scale, so that one unit is a factor of ten) at APOL1 G2 [1] is 5.21. For the same molecule, on APOL1 G2 [2], the AC50 – broadly, the concentration at which the activity in the assay is half-maximal – was 3780 nM.
In the same order, the values of `COC1CCN(CCc2cccc(Cl)c2)CC1COc1ccc(S(C)(=O)=O)cc1` (single isomer, unassigned) [Compound 36, (3R,4R) or (3S,4S) or (3R,4S) or (3S,4R)-1-(3-chlorophenethyl)-4-methoxy-3-((4-(methylsulfonyl)phenoxy)methyl)piperidine] are less than 4.52 and 14200 nM.
In the case of `COC1CCN(CCc2cccc(Cl)c2)CC1COc1ccc(S(C)(=O)=O)cc1` (single isomer, unassigned) [Compound 37, (3R,4R) or (3S,4S) or (3R,4S) or (3S,4R)-1-(3-chlorophenethyl)-4-methoxy-3-((4-(methylsulfonyl)phenoxy)methyl) piperidine], the pEC50 on APOL1 G2 [1] was less than 5.21. At APOL1 G2 [2], the AC50 came to 3840 nM.
The matching figures for `COC1CCN(CCc2cccc(Cl)c2)CC1COc1ccc(S(C)(=O)=O)cc1` (single isomer, unassigned) [Compound 38, (3S,4S) or (3R,4S) or (3 S,4R) or (3R,4R)-1-(3-chlorophenethyl)-4-methoxy-3-((4-(methylsulfonyl)phenoxy)methyl) piperidine]: 6.39 and less than 253 nM.
As for `CS(=O)(=O)c1ccc(CCC2CCCN(CCc3cccc(Cl)c3)C2)cc1` (single isomer, unassigned) [Compound 40, (S) or (R)-1-(3-chlorophenethyl)-3-(4-(methylsulfonyl)phenethyl)piperidine], the pEC50 on APOL1 G2 [1] was 6.13. The AC50 on APOL1 G2 [2] was less than 118 nM.
On to `CS(=O)(=O)c1ccc(CCC2CCCN(CCc3cccc(Cl)c3)C2)cc1` (single isomer, unassigned) [Compound 41, (R) or (S)-1-(3-chlorophenethyl)-3-(4-(methylsulfonyl)phenethyl)piperidine], for which the pEC50 on APOL1 G2 [1] is 5.55. Also, the AC50 at APOL1 G2 [2] came out at 2110 nM.
In the same order, the values of `CC1(C)CC(COc2ccc(S(C)(=O)=O)cc2)CN1CCc1cccc(Cl)c1` (single isomer, unassigned) [Compound 43, (S) or (R)-1-(3-chlorophenethyl)-2,2-dimethyl-4-((4-(methylsulfonyl)phenoxy)methyl) pyrrolidine] are 7.51 and 237 nM.
The matching figures for `CC1(C)CC(COc2ccc(S(C)(=O)=O)cc2)CN1CCc1cccc(Cl)c1` (single isomer, unassigned) [Compound 44, (R) or (S)-1-(3-chlorophenethyl)-2,2-dimethyl-4-((4-(methylsulfonyl)phenoxy)methyl)pyrrolidine]: 5.61 and 2220 nM.
In the same order, the values of `C[C@@H]1CN(CCc2cccc(Cl)c2)C[C@H]1COc1ccc(N(C)S(C)(=O)=O)cc1` (single isomer, unassigned) [Compound 46, N-(4-(((3S,4S) or (3R,4R)-1-(3-chlorophenethyl)-4-methylpyrrolidin-3-yl)methoxy)phenyl)-N-methylmethanesulfonamide] are 7.68 and 90.2 nM.
With `C[C@H]1CN(CCc2cccc(Cl)c2)C[C@@H]1COc1ccc(N(C)S(C)(=O)=O)cc1` (single isomer, unassigned) [Compound 47, N-(4-(((3R,4R) or (3S,4S)-1-(3-chlorophenethyl)-4-methylpyrrolidin-3-yl)methoxy)phenyl)-N-methylmethanesulfonamide], the pEC50 at APOL1 G2 [1] is 6.29. For the same molecule, the AC50 on APOL1 G2 [2] came out at 434 nM.
The matching figures for `CC1CC(COc2ccc(S(C)(=O)=O)cc2)CN1CCc1cccc(Cl)c1` (single isomer, unassigned) [Compound 53, rac-trans or cis-1-(3-chlorophenethyl)-2-methyl-4-((4-(methylsulfonyl)phenoxy)methyl)pyrrolidine]: 5.95 and 856 nM.
In the same order, the values of `CC1CC(COc2ccc(S(C)(=O)=O)cc2)CN1CCc1cccc(Cl)c1` (single isomer, unassigned) [Compound 54, rac-cis or trans-1-(3-chlorophenethyl)-2-methyl-4-((4-(methylsulfonyl)phenoxy)methyl)pyrrolidine] are less than 4.52 and less than 114 nM.
The matching figures for `CC1CC(COc2ccc(S(C)(=O)=O)cc2)CN1CCc1cccc(Cl)c1` (single isomer, unassigned) [Compound 55, (2R,4S) or (2R,4R) or (2S,4R) or (2S,4S)-1-(3-chlorophenethyl)-2-methyl-4-((4-(methylsulfonyl)phenoxy)methyl)pyrrolidine]: 5.77 and 1290 nM.
For `CC1CC(COc2ccc(S(C)(=O)=O)cc2)CN1CCc1cccc(Cl)c1` (single isomer, unassigned) [Compound 56, (2R,4R) or (2S,4R) or (2S,4S) or (2R,4S)-1-(3-chlorophenethyl)-2-methyl-4-((4-(methylsulfonyl)phenoxy)methyl)pyrrolidine], the pEC50 at APOL1 G2 [1] is 5.77. Besides, on APOL1 G2 [2], the AC50 turned out to be 580 nM.
In the same order, the values of `CC1CC(COc2ccc(S(C)(=O)=O)cc2)CN1CCc1cccc(Cl)c1` (single isomer, unassigned) [Compound 57, (2S,4R) or (2S,4S) or (2R,4S) or (2R,4R)-1-(3-chlorophenethyl)-2-methyl-4-((4-(methylsulfonyl)phenoxy)methyl)pyrrolidine] are 5.77 and less than 5000 nM.
With `CC1CC(COc2ccc(S(C)(=O)=O)cc2)CN1CCc1cccc(Cl)c1` (single isomer, unassigned) [Compound 58, (2S,4S) or (2R,4S) or (2R,4R) or (2S,4R)-1-(3-chlorophenethyl)-2-methyl-4-((4-(methylsulfonyl)phenoxy)methyl)pyrrolidine], the pEC50 at APOL1 G2 [1] was greater than 7.39. Moreover, the concentration at half-maximal activity (AC50) on APOL1 G2 [2] is 72.7 nM.
The matching figures for `CS(=O)(=O)c1ccc(OC[C@@H](O)CN2CCCCC2Cc2cccc(Cl)c2)cc1` (single isomer, unassigned) [Compound 63, (2S)-1-((S) or (R)-2-(3-chlorobenzyl)piperidin-1-yl)-3-(4-(methylsulfonyl)phenoxy)propan-2-ol]: 5.40 and 637 nM.
For `CS(=O)(=O)c1ccc(OC[C@@H](O)CN2CCCCC2Cc2cccc(Cl)c2)cc1` (single isomer, unassigned) [Compound 64, (2S)-1-((R) or (S)-2-(3-chlorobenzyl)piperidin-1-yl)-3-(4-(methylsulfonyl)phenoxy)propan-2-ol], the pEC50 at APOL1 G2 [1] is 5.95. Also, the AC50 at APOL1 G2 [2] stood at 570 nM.
In the same order, the values of `CN(c1ccc(OC[C@@H](O)CN2CCC(c3cccc(Cl)c3)C2(C)C)cc1)S(C)(=O)=O` (single isomer, unassigned) [Compound 69, N-(4-((S)-3-((S) or (R)-3-(3-chlorophenyl)-2,2-dimethylpyrrolidin-1-yl)-2-hydroxypropoxy)phe-nyl)-N-methylmethanesulfon-amide] are less than 4.52 and 12900 nM.
Regarding `CN(c1ccc(OC[C@@H](O)CN2CCC(c3cccc(Cl)c3)C2(C)C)cc1)S(C)(=O)=O` (single isomer, unassigned) [Compound 70, N-(4-((R)-(S)-3-((R) or (S)-3-(3-chlorophenyl)-2,2-dimethylpyrrolidin-1-yl)-2-hydroxypropoxy)phe-nyl)-N-methylmethanesulfon-amide], the pEC50 on APOL1 G2 [1] is 6.52. Also, at APOL1 G2 [2], the concentration at half-maximal activity (AC50) turned out to be 295 nM.
As for `CN(c1ccc(OC[C@H](O)CN2CCC(c3cccc(Cl)c3)C2(C)C)cc1)S(C)(=O)=O` (single isomer, unassigned) [Compound 72, N-(4-((R)-3-((S) or (R)-3-(3-chlorophenyl)-2,2-dimethylpyrrolidin-1-yl)-2-hydroxypropoxy)phe-nyl)-N-methylmethanesulfon-amide], the pEC50 on APOL1 G2 [1] was 5.91. For the same molecule, the AC50 at APOL1 G2 [2] was found to be 314 nM.
On to `CN(c1ccc(OC[C@H](O)CN2CCC(c3cccc(Cl)c3)C2(C)C)cc1)S(C)(=O)=O` (single isomer, unassigned) [Compound 73, N-(4-((R)-3-((R) or (S)-3-(3-chlorophenyl)-2,2-dimethylpyrrolidin-1-yl)-2-hydroxypropoxy)phe-nyl)-N-methylmethanesulfon-amide], for which the pEC50 at APOL1 G2 [1] was less than 4.75. The AC50 at APOL1 G2 [2] is 3060 nM.
